Source: patent US20100267697A1, “ION CHANNEL MODULATORS” (Wyeth, priority 2006, published 2010)
Structures can show the parent of a compound that is named as a salt. Where two headings read alike, the source gives them in different places.

Key:
Type in all cases: cell-based
Cav2.2 [1] = biological target: T1, Cav2.2 (Homo sapiens, UniProt Q00975); assay: HEK assay (whole-cell patch clamp, transiently transfected HEK-293T/17 cells, pulses P1 and P5); conditions: holding potential −100 mV
T1 construct: expressed in transfected cells; host or cells: HEK-293T/17 (transient, FuGENE 6)
T1 sequence (Q00975 whole entry): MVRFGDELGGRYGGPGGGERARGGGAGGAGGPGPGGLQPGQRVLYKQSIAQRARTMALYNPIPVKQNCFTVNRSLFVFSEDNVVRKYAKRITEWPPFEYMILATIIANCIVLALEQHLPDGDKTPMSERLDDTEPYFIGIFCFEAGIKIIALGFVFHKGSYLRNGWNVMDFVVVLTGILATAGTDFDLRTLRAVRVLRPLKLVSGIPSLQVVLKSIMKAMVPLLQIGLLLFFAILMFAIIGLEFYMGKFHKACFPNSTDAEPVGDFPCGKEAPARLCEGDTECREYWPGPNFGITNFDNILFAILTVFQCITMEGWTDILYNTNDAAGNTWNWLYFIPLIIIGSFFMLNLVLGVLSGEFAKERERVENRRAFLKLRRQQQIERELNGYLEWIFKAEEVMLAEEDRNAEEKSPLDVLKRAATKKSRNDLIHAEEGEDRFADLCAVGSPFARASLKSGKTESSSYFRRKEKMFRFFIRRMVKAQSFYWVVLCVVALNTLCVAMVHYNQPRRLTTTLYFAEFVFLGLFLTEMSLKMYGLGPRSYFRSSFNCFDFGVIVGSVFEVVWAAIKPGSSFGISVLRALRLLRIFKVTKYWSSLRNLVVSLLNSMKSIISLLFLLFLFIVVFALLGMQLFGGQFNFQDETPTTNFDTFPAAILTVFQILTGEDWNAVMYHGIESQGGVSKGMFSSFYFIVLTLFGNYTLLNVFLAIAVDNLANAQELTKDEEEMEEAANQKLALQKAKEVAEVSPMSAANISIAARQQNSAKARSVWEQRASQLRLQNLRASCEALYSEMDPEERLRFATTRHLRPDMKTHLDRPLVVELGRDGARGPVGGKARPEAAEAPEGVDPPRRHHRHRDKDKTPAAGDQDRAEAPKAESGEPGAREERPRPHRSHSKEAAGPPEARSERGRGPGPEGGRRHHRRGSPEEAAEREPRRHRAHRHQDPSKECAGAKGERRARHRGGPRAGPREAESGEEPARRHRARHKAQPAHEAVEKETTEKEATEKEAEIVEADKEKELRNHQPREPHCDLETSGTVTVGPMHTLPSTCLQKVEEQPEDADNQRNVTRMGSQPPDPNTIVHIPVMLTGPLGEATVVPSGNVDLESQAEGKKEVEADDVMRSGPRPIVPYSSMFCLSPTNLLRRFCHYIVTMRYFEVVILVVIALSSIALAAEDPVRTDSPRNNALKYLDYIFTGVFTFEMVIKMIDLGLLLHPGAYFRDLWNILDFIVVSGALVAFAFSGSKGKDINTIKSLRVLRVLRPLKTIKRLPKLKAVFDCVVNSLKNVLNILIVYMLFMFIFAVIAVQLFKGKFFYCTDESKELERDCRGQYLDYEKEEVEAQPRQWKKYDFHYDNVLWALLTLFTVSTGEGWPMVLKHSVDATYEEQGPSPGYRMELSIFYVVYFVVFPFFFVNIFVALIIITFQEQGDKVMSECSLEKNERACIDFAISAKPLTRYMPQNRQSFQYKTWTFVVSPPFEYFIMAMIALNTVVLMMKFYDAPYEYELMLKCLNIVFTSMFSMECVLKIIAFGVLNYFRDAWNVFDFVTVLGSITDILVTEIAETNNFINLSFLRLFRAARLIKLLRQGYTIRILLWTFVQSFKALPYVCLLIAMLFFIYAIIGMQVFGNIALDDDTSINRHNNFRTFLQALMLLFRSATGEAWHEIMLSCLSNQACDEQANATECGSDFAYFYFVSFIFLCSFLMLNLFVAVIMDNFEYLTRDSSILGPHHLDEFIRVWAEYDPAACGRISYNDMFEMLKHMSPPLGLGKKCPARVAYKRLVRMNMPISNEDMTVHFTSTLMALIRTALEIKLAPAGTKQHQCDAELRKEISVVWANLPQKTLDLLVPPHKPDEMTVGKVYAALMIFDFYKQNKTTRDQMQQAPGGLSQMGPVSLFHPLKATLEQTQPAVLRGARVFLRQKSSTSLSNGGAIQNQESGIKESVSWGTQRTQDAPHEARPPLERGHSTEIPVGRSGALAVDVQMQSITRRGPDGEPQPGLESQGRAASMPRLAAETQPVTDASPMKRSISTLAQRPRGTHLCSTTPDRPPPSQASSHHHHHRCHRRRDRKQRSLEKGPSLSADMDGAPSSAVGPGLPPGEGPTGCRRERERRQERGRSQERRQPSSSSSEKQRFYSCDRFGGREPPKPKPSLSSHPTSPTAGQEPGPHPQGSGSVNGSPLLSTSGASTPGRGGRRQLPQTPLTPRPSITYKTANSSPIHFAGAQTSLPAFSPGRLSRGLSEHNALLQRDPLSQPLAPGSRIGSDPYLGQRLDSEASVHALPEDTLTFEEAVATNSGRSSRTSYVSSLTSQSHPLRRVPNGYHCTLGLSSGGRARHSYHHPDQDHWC
T1 sequence (P54284 whole entry partner): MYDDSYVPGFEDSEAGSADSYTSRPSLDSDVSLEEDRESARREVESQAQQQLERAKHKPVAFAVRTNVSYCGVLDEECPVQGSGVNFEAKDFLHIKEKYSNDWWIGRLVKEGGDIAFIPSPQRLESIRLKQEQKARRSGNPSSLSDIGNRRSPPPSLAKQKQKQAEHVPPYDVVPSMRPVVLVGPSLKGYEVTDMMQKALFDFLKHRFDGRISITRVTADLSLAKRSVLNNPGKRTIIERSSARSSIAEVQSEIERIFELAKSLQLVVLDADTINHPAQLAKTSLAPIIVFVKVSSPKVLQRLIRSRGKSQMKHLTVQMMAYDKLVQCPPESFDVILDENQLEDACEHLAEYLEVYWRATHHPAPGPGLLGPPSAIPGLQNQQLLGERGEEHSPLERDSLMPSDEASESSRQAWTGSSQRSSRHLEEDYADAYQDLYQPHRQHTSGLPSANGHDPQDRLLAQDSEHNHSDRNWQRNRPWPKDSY
T1 sequence (P54289 25-946 partner limits assumed): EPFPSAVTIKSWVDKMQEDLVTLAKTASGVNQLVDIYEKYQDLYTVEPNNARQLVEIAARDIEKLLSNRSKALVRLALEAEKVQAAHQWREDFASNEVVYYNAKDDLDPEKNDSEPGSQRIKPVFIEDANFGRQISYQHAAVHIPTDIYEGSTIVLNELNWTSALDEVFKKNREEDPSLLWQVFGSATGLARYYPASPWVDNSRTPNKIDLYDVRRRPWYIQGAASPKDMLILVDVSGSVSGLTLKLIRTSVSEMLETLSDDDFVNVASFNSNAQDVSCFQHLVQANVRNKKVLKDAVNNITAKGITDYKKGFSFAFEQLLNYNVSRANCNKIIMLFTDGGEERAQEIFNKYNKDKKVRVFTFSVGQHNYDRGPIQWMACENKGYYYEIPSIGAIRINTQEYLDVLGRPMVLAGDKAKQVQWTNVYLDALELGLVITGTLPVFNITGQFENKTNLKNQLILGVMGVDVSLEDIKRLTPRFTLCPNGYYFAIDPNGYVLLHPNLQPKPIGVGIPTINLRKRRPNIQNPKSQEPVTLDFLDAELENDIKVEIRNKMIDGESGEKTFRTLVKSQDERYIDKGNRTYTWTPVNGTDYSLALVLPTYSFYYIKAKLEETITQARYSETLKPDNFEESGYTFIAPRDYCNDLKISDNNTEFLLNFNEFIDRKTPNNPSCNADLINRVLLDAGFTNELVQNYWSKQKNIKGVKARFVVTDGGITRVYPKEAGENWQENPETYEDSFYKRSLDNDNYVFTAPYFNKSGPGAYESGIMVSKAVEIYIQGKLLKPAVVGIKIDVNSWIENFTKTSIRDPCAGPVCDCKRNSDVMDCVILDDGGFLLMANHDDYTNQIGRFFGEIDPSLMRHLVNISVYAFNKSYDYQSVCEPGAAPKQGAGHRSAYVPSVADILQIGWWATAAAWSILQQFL
T1 sequence (P54289 947-1103 partner limits assumed): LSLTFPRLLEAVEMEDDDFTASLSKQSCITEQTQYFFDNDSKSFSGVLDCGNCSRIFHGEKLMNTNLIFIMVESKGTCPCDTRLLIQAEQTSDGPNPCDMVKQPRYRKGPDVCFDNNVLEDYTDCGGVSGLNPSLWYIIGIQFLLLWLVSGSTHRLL
Summary of the method: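 Whole-cell voltage clamp of HEK-293T/17 cells transiently transfected via FuGENE 6, then grown 24 h in 1% serum before recording. From −100 mV holding, trains of five 20–30 ms steps to about +10 mV at 5 Hz, repeated every 30 s; steady-state IC50s taken at first (P1) and fifth (P5) pulses to gauge use-dependent block.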

Cav2.2 [2] = biological target: Cav2.2 (UniProt Q02294); assay: Oocyte assay (Xenopus oocyte heterologous expression, current at fifth pulse P5); conditions: Xenopus oocytes; fifth pulse (P5) of 5 Hz train, holding potential −100 mV
Experimental: The assay was performed on various calcium channels (e.g., Cav2.2 subfamily) whereby the modulation of the calcium channel was measured for each tested compound.

[3] = biological target: T2, human Cav2.2 (composed of the subunits α1, β3 and α2δ) (Homo sapiens, UniProt Q00975); assay: FLIPR assay (TSA201 cells stably transfected with human Cav2.2 and human Kir2.3, FLUO-4 Ca2+ signal, KCl depolarization); conditions: 70 mM KCl depolarization, average value
T2 construct: expressed in transfected cells
T2 sequence (Q00975 whole entry): as the sequence (Q00975 whole entry) above
T2 sequence (P54284 whole entry partner): as the sequence (P54284 whole entry partner) above
T2 sequence (P54289 25-946 partner limits assumed): as the sequence (P54289 25-946 partner limits assumed) above
T2 sequence (P54289 947-1103 partner limits assumed): as the sequence (P54289 947-1103 partner limits assumed) above
Summary of the method: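 TSA201 cells co-expressing Cav2.2 (α1, β3, α2δ) and Kir2.3 were loaded with FLUO-4 for 1 h at room temperature. Compound in HBSS with 1% DMSO was preincubated 15 min, then cells were depolarized with 70 mM final KCl (with CaCl2 and HEPES) and the Ca2+ fluorescence was read on FLIPR.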

[4] = fifth pulse (P5) of 5 Hz train, read-out: HEK Cav2.2 P5 IC50
[5] = first pulse (P1) of 5 Hz train, read-out: HEK Cav2.2 P1 IC50

| IC50 (Cav2.2 [1]; [4]) | IC50 (Cav2.2 [1]; [5]) | IC50 (Cav2.2 [2]) | IC50 [3] | SMILES |
| --- | --- | --- | --- | --- |
| 2 µM | 16.8 µM | 16.9 µM | – | CC(C)(C)C(=O)N(Cc1csc(N2CCCCC2)n1)c1ccc(F)cc1 [Compound 2, N-(4-fluorophenyl)-2,2-dimethyl-N-(2-piperidin-1-yl-thiazol-4-ylmethyl)-propionamide hydrochloride] |
| 1.3 µM | 4.3 µM | 12.1 µM | – | CCN(CC)c1ccc(CN(C(=O)C(C)(C)C)c2ccc(F)cc2)cn1 [Compound 3, N-(6-diethylamino-pyridin-3-ylmethyl)-N-(4-fluorophenyl)-2,2-dimethyl-propionamide trifluoroacetate] |
| 1.7 µM | 12.9 µM | 8 µM | – | CCN(c1ccc(CN(C(=O)C(C)(C)C)c2ccc(F)cc2)cn1)C1CC1 [Compound 7, N-(6-(Cyclopropyl(ethyl)amino)-pyridin-3-ylmethyl)-N-(4-fluorophenyl)-2,2-dimethyl-propionamide] |
| 1.6 µM | 5.1 µM | 8.7 µM | – | CC(C)(C)C(=O)N(Cc1cnc(N2CCCCC2)nc1)c1ccc(F)cc1 [Compound 8, N-(4-fluorophenyl)-2,2-dimethyl-N-(2-piperidin-1-yl-pyrimidin-5-ylmethyl)-propionamide hydrochloride] |
| – | – | 44 µM | – | CN1CCN(c2ccc(CN(C(=O)NC(C)(C)C)c3ccc(F)cc3)cn2)CC1 [Compound 11, 3-tert-butyl-1-(4-fluorophenyl)-1-(6-(4-methyl-piperazin-1-yl)-pyridin-3-ylmethyl)-urea hydrochloride] |
| – | – | 86 µM | – | CN1CCN(c2ccc(CN(C(=O)C3CCCO3)c3ccc(F)cc3)cn2)CC1 (stereo not drawn) [Compound 16, TETRAHYDRO-FURAN-2-CARBOXYLIC ACID (4-FLUOROPHENYL)-(6-(4-METHYL-PIPERAZIN-1-YL)-PYRIDIN-3-YLMETHYL)-AMIDE TRIFLUOROACETATE] |
| – | – | 41.9 µM | – | CN1CCN(c2ccc(CN(C(=O)C(C)(C)C)c3ccc(F)cc3)cn2)CC1 [Compound 17, N-(4-Fluorophenyl)-N-[6-(4-methyl-piperazin-1-yl)-pyridin-3-ylmethyl)-2,2-dimethyl-propionamide] |
| 1.7 µM | 4 µM | 7.1 µM | – | CN(CCc1ccccn1)c1ccc(CN(C(=O)C(C)(C)C)c2ccc(F)cc2)cn1 [Compound 18, N-(4-Fluorophenyl)-2,2-dimethyl-N-{6-[methyl-(2-pyridin-2-yl-ethyl)-amino]-pyridin-3-ylmethyl}-propionamide] |
| 5.2 µM | 22.2 µM | 35.5 µM | – | CN(CCN1CCOCC1)c1ccc(CN(C(=O)C(C)(C)C)c2ccc(F)cc2)cn1 [Compound 20, N-(4-Fluorophenyl)-2,2-dimethyl-N-{6-[methyl-(2-morpholin-4-yl-ethyl)-amino]-pyridin-3-ylmethyl}-propionamide] |
| 2.7 µM | 10.5 µM | 18 µM | – | Cc1cc(F)ccc1N(Cc1ccc(N2CCN(C)CC2)nc1)C(=O)C(C)(C)C [Compound 21, N-(4-Fluoro-2-methyl-phenyl)-2,2-dimethyl-N-[6-(4-methyl-piperazin-1-yl)-pyridin-3-ylmethyl]-propionamide] |
| – | – | 129 µM | – | CN1CCN(c2ccc(CN(C(=O)C3CC3)c3ccc(F)cc3)cn2)CC1 [Compound 103, Cyclopropanecarboxylic acid (4-fluorophenyl)-[6-(4-methyl-piperaizn-1-yl)-pyridin-3-ylmethyl]-amide] |
| – | – | 37 µM | – | CCN(CC)c1ccc(CN(C(=O)C2CCOC2)c2ccc(F)cc2)cn1 (stereo not drawn) [Compound 112, Tetrahydro-furan-3-carboxylic acid (6-diethylamino-pyridin-3-ylmethyl)-(4-fluorophenyl)-amide] |
| – | – | 30 µM | – | CCN(CC)c1ccc(CN(C(=O)C2CCOCC2)c2ccc(F)cc2)cn1 [Compound 113, Tetrahydro-pyran-4-carboxylic acid (6-diethylamino-pyridin-3-ylmethyl)-(4-fluorophenyl)-amide] |
| – | – | – | 5.5 µM | CC(C)(C)C(=O)N(Cc1csc(-c2cccc(C(F)(F)F)c2)n1)c1ccc(F)cc1 [Compound 242, N-(4-fluorophenyl)-2,2-dimethyl-N-({2-[3-(trifluoromethyl)phenyl]-1,3-thiazol-4-yl]methyl)propanamide] |
| – | – | – | 4.1 µM | CC(C)(C)C(=O)N(Cc1csc(-c2ccccc2C(F)(F)F)n1)c1ccc(F)cc1 [Compound 243, N-(4-fluorophenyl)-2,2-dimethyl-N-({2-[2-(trifluoromethyl)phenyl]-1,3-thiazol-4-yl}methyl)propanamide] |
| – | – | – | 7.3 µM | CC(C)(C)C(=O)N(Cc1csc(-c2ccc(O)cc2)n1)c1ccc(F)cc1 [Compound 244, N-(4-fluorophenyl)-N-{[2-(4-hydroxyphenyl)-1,3-thiazol-4-yl]methyl}-2,2-dimethylpropanamide] |
| – | – | – | 5.4 µM | CC(C)(C)C(=O)N(Cc1csc(-c2cccc(O)c2)n1)c1ccc(F)cc1 [Compound 245, N-(4-fluorophenyl)-N-{[2-(3-hydroxyphenyl)-1,3-thiazol-4-yl]methyl}-2,2-dimethylpropanamide] |
| – | – | – | 7.2 µM | CC(C)(C)C(=O)N(Cc1csc(-c2ccccc2O)n1)c1ccc(F)cc1 [Compound 246, N-(4-fluorophenyl)-N-{[2-(2-hydroxyphenyl)-1,3-thiazol-4-yl]methyl}-2,2-dimethylpropanamide] |
| – | – | – | 5 µM | CC(C)(C)C(=O)N(Cc1csc(-c2ccc(F)cc2)n1)c1ccc(F)cc1 [Compound 247, N-(4-fluorophenyl)-N-{[2-(4-fluorophenyl)-1,3-thiazol-4-yl]methyl}-2,2-dimethylpropanamide] |
| – | – | – | 5.3 µM | CC(C)(C)C(=O)N(Cc1csc(-c2cccc(F)c2)n1)c1ccc(F)cc1 [Compound 248, N-(4-fluorophenyl)-N-{[2-(3-fluorophenyl)-1,3-thiazol-4-yl]methyl}-2,2-dimethylpropanamide] |
| – | – | – | 7.9 µM | CC(C)(C)C(=O)N(Cc1csc(-c2ccccc2F)n1)c1ccc(F)cc1 [Compound 249, N-(4-fluorophenyl)-N-{[2-(2-fluorophenyl)-1,3-thiazol-4-yl]methyl}-2,2-dimethylpropanamide] |
| – | – | – | 34.4 µM | CN1CCN(c2ccc(CN(C(=O)C3CCCO3)c3ccc(F)cc3)cn2)CC1 (stereo not drawn) [Compound 250, N-(4-fluorophenyl)-N-{[6-(4-methylpiperazin-1-yl)pyridin-3-yl]methyl}tetrahydrofuran-2-carboxamide] |
| – | – | – | 2.9 µM | CC(C)(C)OC(=O)N1CC[C@H](C(=O)N(Cc2ccc(Cl)nc2)c2ccc(F)cc2)C1 [Compound 254, TERT-BUTYL (3S)-3-{[(6-CHLOROPYRIDIN-3-YL)METHYL](4-FLUOROPHENYL)CARBAMOYL}PYRROLIDINE-1-CARBOXYLATE] |
| – | – | – | 2.8 µM | CC(C)(C)OC(=O)N1CC[C@@H](C(=O)N(Cc2ccc(Cl)nc2)c2ccc(F)cc2)C1 [Compound 255, tert-butyl (3R)-3-{[(6-chloropyridin-3-yl)methyl](4-fluorophenyl)carbamoyl}pyrrolidine-1-carboxylate] |
| – | – | – | 12.6 µM | CN1CCN(c2ccc(CN(C(=O)[C@H]3CCN(C(=O)OC(C)(C)C)C3)c3ccc(F)cc3)cn2)CC1 [Compound 256, tert-butyl (3S)-3-[(4-fluorophenyl){[6-(4-methylpiperazin-1-yl)pyridin-3-yl]methyl}carbamoyl]pyrrolidine-1-carboxylate] |
| – | – | – | 22.9 µM | CN1CCN(c2ccc(CN(C(=O)[C@@H]3CCN(C(=O)OC(C)(C)C)C3)c3ccc(F)cc3)cn2)CC1 [Compound 257, tert-butyl (3R)-3-[(4-fluorophenyl){[6-(4-methylpiperazin-1-yl)pyridin-3-yl]methyl}carbamoyl]pyrrolidine-1-carboxylate] |
| – | – | – | 57.7 µM | CN1CCN(c2ccc(CN(C(=O)[C@H]3CCNC3)c3ccc(F)cc3)cn2)CC1 [Compound 258, (3S)-N-(4-fluorophenyl)-N-{[6-(4-methylpiperazin-1-yl)pyridin-3-yl]methyl}pyrrolidine-3-carboxamide] |
| – | – | – | 59.5 µM | CN1CCN(c2ccc(CN(C(=O)[C@@H]3CCNC3)c3ccc(F)cc3)cn2)CC1 [Compound 259, (3R)-N-(4-fluorophenyl)-N-{[6-(4-methylpiperazin-1-yl)pyridin-3-yl]methyl}pyrrolidine-3-carboxamide] |
| – | – | – | 47.3 µM | CN1CCN(c2ccc(CN(C(=O)[C@H]3CCN(C(=O)C(C)(C)C)C3)c3ccc(F)cc3)cn2)CC1 [Compound 260, (3S)-1-(2,2-dimethylpropanoyl)-N-(4-fluorophenyl)-N-{[6-(4-methylpiperazin-1-yl)pyridin-3-yl]methyl}pyrrolidine-3-carboxamide] |
| – | – | – | 55.6 µM | CN1CCN(c2ccc(CN(C(=O)[C@@H]3CCN(C(=O)C(C)(C)C)C3)c3ccc(F)cc3)cn2)CC1 [Compound 261, (3R)-1-(2,2-dimethylpropanoyl)-N-(4-fluorophenyl)-N-{[6-(4-methylpiperazin-1-yl)pyridin-3-yl]methyl}pyrrolidine-3-carboxamide] |

| SMILES | IC50 (Cav2.2 [1]; [4]) | IC50 (Cav2.2 [1]; [5]) | IC50 (Cav2.2 [2]) | IC50 [3] |
| --- | --- | --- | --- | --- |
| O=C(C1CCCO1)N(Cc1ccc(Cl)nc1)c1ccc(F)cc1 (stereo not drawn) [Compound 252, N-[(6-chloropyridin-3-yl)methyl]-N-(4-fluuorophenyl)tetrahydrofuran-2-carboxamide] | – | – | – | 13.4 µM |
